SMILES strings stand for the structures.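 1) Cells in 96-well plates. 2) Compound, 48 h, 5 concentrations. 3) Linear interpolation between surrounding doses. 4) Unreached endpoint = highest concentration. Abbreviation: GI50, concentration required for 50% inhibition of growth. At the TGI there is no net growth.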

Among the data in PubChem BioAssay (NCI) are GI50 and TGI values, retold here.

Assay in all cases: inhibition of tumour cell growth, NCI panel, 48 h
The test system of test [1] is MDA-MB-435.
Test [2] relates to T-47D breast.
In test [3] the test system is HS 578T breast.
Test [4] relates to DU-145 prostate.
The test system of test [5] is MDA-MB-231 breast.

On to `COc1ccc(-c2nc(-c3nc4ccc(C)cc4[nH]3)c3ccccn23)cc1`, for which the GI50 in test [1] is 2.3 µM; in test [2], 2.27 µM; in test [3], 2.17 µM; in test [4] it was 2.85 µM; in test [5], 3.09 µM. Moreover, the TGI in test [1] is 8.46 µM; in test [2], 8.06 µM; in test [3], 6.05 µM; in test [4], above 100 µM; in test [5], above 100 µM.

Turning to `C[C@]12CC[C@@H]3c4ccc(Oc5nc(N6CC6)nc(N6CC6)n5)cc4CC[C@H]3[C@@H]1CCC2=O`, the GI50 in test [1] was 5.43 µM; in test [2] it was 3.55 µM; in test [3] it was 4.64 µM; in test [4], 1.82 µM; in test [5], 10.2 µM. Besides, the TGI is 22 µM in test [1]; 19.4 µM in test [2]; 44.8 µM in test [3]; 6.46 µM in test [4]; 25.2 µM in test [5].

On to `CC(C)(C)C1=CC(=CC=C2C=CN(CCCCCCCCCCCO)C=C2)C=C(C(C)(C)C)C1=O`, for which the TGI in test [1] was determined as 3.4 µM; in test [2], 2.7 µM; in test [3], 4.23 µM; in test [4], 20.7 µM; in test [5] it was 3.28 µM.

`Cc1[nH]c(N=Nc2ccccc2)nc1N=Nc1ccccc1`: the GI50 in test [1] is 3.35 µM; in test [2] it was 2.77 µM; in test [3], 12.8 µM; in test [4], 3.17 µM; in test [5], 5.25 µM. Also, the TGI is 17.9 µM in test [1]; above 46.8 µM in test [2]; above 34.8 µM in test [3]; above 34.9 µM in test [4]; above 45.4 µM in test [5].

For the molecule `Cn1cc(-c2csc(-c3cccc(F)c3)n2)c2cccnc21`, the GI50 was 14.4 µM in test [1]; 14.4 µM in test [2]; 19.3 µM in test [3]; 18.2 µM in test [4]; 16.8 µM in test [5]. Besides, the TGI in test [1] stood at 33.1 µM; in test [2] it was 51.7 µM; in test [3], 45.5 µM; in test [4] it was 32.1 µM; in test [5], 35.3 µM.

In the case of `CC12CCCC(CC(=O)c3[nH]c4ccccc4c31)C2` (stereo not given), the GI50 in test [1] is 0.255 µM; in test [2], 0.65 µM; in test [3] it was 0.936 µM; in test [4] it was 2.04 µM; in test [5], 3.26 µM. Besides, the TGI in test [1] was 0.949 µM; in test [2] it was above 100 µM; in test [3], 37.8 µM; in test [4], 24.3 µM; in test [5], 43.1 µM.

Regarding `CCCCC/C=C/C/C=C/CCCCCCCC1=NC(C)(C)CN1C(C)C`, the GI50 is 1.5 µM in test [1]; 1.97 µM in test [2]; 1.84 µM in test [3]; 1.73 µM in test [4]; 1.75 µM in test [5]. The TGI was 2.82 µM in test [1]; 3.98 µM in test [2]; 3.67 µM in test [3]; 3.11 µM in test [4]; 4.36 µM in test [5].

In the case of `COc1ccc(C2CC(=O)c3c(OC)cc(OC)cc3O2)cc1` (stereo not given), the GI50 in test [1], in test [2], in test [3], in test [4] and in test [5] was above 100 µM each time. Besides, the TGI in test [1], in test [2], in test [3], in test [4] and in test [5] was above 100 µM in each case.

On to `C[C@]12CC[C@@H]3c4ccc(O)cc4C[C@@H](CCCCCCCCCS(=O)CCCC(F)(F)C(F)(F)F)[C@H]3[C@@H]1CC[C@@H]2O` (stereo not given in full), for which the GI50 is above 100 µM in test [1]; 0.71 µM in test [2]; above 100 µM in test [3]; above 100 µM in test [4]; above 100 µM in test [5]. Further, the TGI in test [1], in test [2], in test [3], in test [4] and in test [5] was above 100 µM in each case.

On to `COc1cc([N+](=O)[O-])ccc1NC(=O)C(F)(F)F`, for which the TGI in test [1], in test [2], in test [3], in test [4] and in test [5] was above 100 µM in each case.

On to `NCCCCn1c2c(c3ccccc3c1=O)C(=O)c1ccccc1-2`, for which the GI50 is 0.717 µM in test [1]; 0.631 µM in test [2]; 0.538 µM in test [3]; 0.0131 µM in test [4]; 0.23 µM in test [5]. Further, the TGI in test [1] stood at 2.28 µM; in test [2] it was 6.81 µM; in test [3] it was 4.75 µM; in test [4], 0.498 µM; in test [5], 0.848 µM.

As for `O=C(CCCSc1nc(-c2ccc(Cl)cc2)cc(-c2ccc(Cl)cc2)n1)NO`, the GI50 in test [1] was 2.81 µM; in test [2], 1.37 µM; in test [3], 4.63 µM; in test [4], 0.665 µM; in test [5], 1.71 µM. For the same molecule, the TGI in test [1] was determined as 17 µM; in test [2], 16.7 µM; in test [3] it was 22.8 µM; in test [4], 8.94 µM; in test [5] it was 13.2 µM.

For `COc1cc2c3c(n(CCCCl)c(=O)c2cc1OC)-c1ccccc1C3=O`, the GI50 in test [1] is above 100 µM; in test [2], above 100 µM; in test [3] it was 23.5 µM; in test [4], above 100 µM; in test [5], 37 µM. The TGI in test [1], in test [2], in test [3], in test [4] and in test [5] was above 100 µM in each case.

Consider `COc1cc2c3c(n(CCCBr)c(=O)c2cc1OC)-c1ccc(NC(C)=O)cc1C3=O`, for which the GI50 was 13.9 µM in test [1]; 1.84 µM in test [2]; 40.6 µM in test [3]; 4.65 µM in test [4]; 25.8 µM in test [5]. The TGI is 78.3 µM in test [1]; above 100 µM in test [2]; above 100 µM in test [3]; above 100 µM in test [4]; above 100 µM in test [5].
